Consider two compounds from publication PMC4520450, “Procyanidins Negatively Affect the Activity of the Phosphatases of Regenerating Liver” (PLoS ONE, 2015).

One data set has as its target T1, PRL-3 (Homo sapiens, UniProt O75365).
T1 construct: His-TEV (cleaved yes); made in house
Description: DiFMUP phosphatase activity assay for PRLs. It is filed as biochemical. To be noted: 50 nM PRL-3, 30 min preincubation, 25°C, 21 μM DiFMUP; mean ± SEM (n = 3–5); read-out: IC50 (Ki) PRL-3. As for the experimental part:
Biochemical phosphatase activity measurements were carried out in the presence of different concentrations of various polyphenols, compounds 1–11 (Fig 1), using recombinant PRL-3 and 6,8-difluoro-4-methylumbelliferyl phosphate (DiFMUP) as a fluorogenic substrate (see the experimental procedures). We observed that the monomeric epicatechins EGC and EC inhibit PRL-3 only weakly, with a slightly better activity of EGC, which bears three hydroxyl groups at the B-ring. […] In general, as a basic structure activity-relationship the following trend was observed: a higher number of hydroxyl groups at the B-ring increased the activity slightly. […] The influence of the stereochemistry at C(2)–C(3) was studied by using GCG (the trans-epimer of EGCG).
Fig 2 Effect of polyphenolic compounds 8 (A), 9 (B), 10 (C) and 11 (D) on the phosphatase activity of PRL-1, PRL-2, PRL-3, PP1, and PP2A. Proteins were incubated for 30 min with 0–1000 μM of the corresponding procyandin 8–11. Phosphatase activity was measured in the presence of DiFMUP at 25°C using the concentration corresponding to the KM of each protein. The KM for PRLs was determined separately (PRL-3 = 21 μM, PRL-2 and PRL-1 = 24 μM). The KM for PP1 (91 μM) and for PP2A (100 μM) was taken from the literature. Protein concentrations are 50 nM for all PRLs and 2 mU for PP1 and 0.05 U for PP2A (see the Experimental Procedures). Phosphatase activity in the absence of inhibitors was set as 100%. Data represent means ± standard errors of the mean (n = 3–5).
DiFMUP assay for PRLs: In a final reaction volume of 100 μL the PRLs (50 nM final concentration) were incubated with decreasing concentrations of the inhibitory polyphenols for 30 minutes at 25°C. The buffer conditions were 108 mM TrisCl (pH 7.5), Triton 0.05% (v/v), DTT 27.0 mM, NaCl 811 mM. After the incubation time 20 μL DiFMUP (6,8-Difluoro-4-methylumbelliferyl phosphate) was added to reach a final concentration of 21 μM for PRL-3 and 24 μM for PRL-1 and PRL-2. On a Tecan safire2 (Tecan, Salzburg, Austria) plate reader dephosphorylation of the substrate to its fluorescent product was monitored by following the emission at 358 nm with excitation at 452 nm for 20 minutes. All measurements were done in triplicates, and the experiments were repeated at least three times. The slopes of the initial phases were obtained by linear regression of the data points. The normalized reaction rates were plotted versus the log of the inhibitor concentrations and the IC50 values were obtained by fitting the curves using the one site competition model of GraphPad Prism (GraphPad Software, Version 5). KM values were determined by measuring reaction kinetics of substrate dilution series. Initial velocities were plotted against DiFMUP concentration and the data was analyzed by Michaelis-Menten kinetics curve fitting of GraphPad Prism. A final DMSO content of 0.4% was maintained for the monomeric catechins. Due to the high water solubility of the procyanidins DMSO was not required and measurements were done in assay buffer only.

The test system of data set [1] is HEK293 cells (empty vector, PRL-1 and PRL-3 overexpressing). Description: Cytotoxicity by flow cytometry with propidium iodide. The data set is classed as cell-based. The note with it: 24 h. The text has this: To study the effects of procyanidins on PRL-1 and PRL-3 in cells, the trimeric catechin (procyanidin C2, 9) was chosen as a representative example due to its strong inhibitor activity in vitro toward both PRL-s and its smaller size compared to the higher oligomers, which could influence cell permeability. HEK293 cells stably overexpressing PRL-1 and PRL-3 were chosen as model cell line. As a control cell line, HEK293 cells transfected with the empty vector were utilized (see the Experimental Procedures). To avoid false positive results due to cell death, first cell viability was studied in a concentration dependent manner by using flow cytometry. Therefore, cells were treated with different concentrations of compound 9 for 24 h, harvested, and then the ratio of living to dead cells was determined using propidium iodide (Fig 5).
Fig 5 Cytotoxicity of procyanidin C2 (9) in HEK293 cells. Cells were treated with 50, 150 or 300 μM of 9 in the growth medium for 24 h. Cells were harvested, resuspended in PBS buffer and incubated with propidium iodide (1 mg/mL) for 5 min on ice. 10,000 events were set for the number of living cells. The number of living cells was divided by the number of total cells counted and given as percentage of cell survival. Data represent means ± standard errors of the mean (n = 3).
Fig 7 A) Cytotoxicity of procyanidin B3 (8) in HEK293 cells. Cells were treated with 50, 75 or 100 μM of 8 in the growth medium for 24 h. Cells were harvested, resuspended in PBS buffer and incubated with propidium iodide (1 mg/mL) for 5 min on ice. 10,000 events were set for the number of living cells. The number of living cells was divided by the number of total cells counted and given as percentage of cell survival. Data represent means ± standard errors of the mean (n = 3). B) Wound healing abilities of PRL-1 or PRL-3 overexpressing or empty vector control HEK293 cell lines were analyzed in the presence of compound 8 or medium only. Cells were seeded at a concentration of 800,000 cells per insert and procyanidin B3 (8) was added at a concentration of 50 and 75 μM. Speed of migration is shown for combined data from different replicates, as mean ± SD (n = 40–77). Two-sided t-tests with Welsh correction were performed for p < 0.05. ns = not significant;***: < 0.001; **: < 0.01; *: < 0.05.
Flow cytometry was used to determine the ratio of living to dead cells compared to the control. HEK293 empty vector and PRL-3 overexpressing cells were seeded in a transparent 6-well plate with 400,000 cells/well in DMEM medium without Phenol red, supplemented with 10% FBS, 1% glutamine and 0.2% hygromycin and blasticidin. For induction of PRL-3 expression, 0.1% tetracycline was added. After 24 hours incubation at 37°C, procyanidins 8 or 9 dissolved in growth medium and growth medium as a control were added to the respective wells in the indicated final concentrations and incubated for another 24 hours. Then, the medium was removed and collected in Eppendorf tubes, centrifuged for 5 min at 500 rpm and the supernatant removed. Then 1 mL of PBS (10%) was added to each well and the cells detached with a cell scraper. […] After thorough mixing the cell suspension was injected into a LSR- Fortessa Bench Top Analyzer (Beckton Dickinson) and the number of living and dead cells counted. […] The number of living cells was divided by the number of total cells counted and given as percentage of cell survival.

T1 sequence (O75365 whole entry): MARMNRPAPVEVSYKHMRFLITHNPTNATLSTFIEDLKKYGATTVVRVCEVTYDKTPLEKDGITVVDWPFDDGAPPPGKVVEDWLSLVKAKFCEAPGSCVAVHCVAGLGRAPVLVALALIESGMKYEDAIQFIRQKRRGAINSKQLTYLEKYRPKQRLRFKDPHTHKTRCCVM

A word on the IC50: it is the point on the concentration scale where inhibition reaches its midpoint. For the compound `Oc1cc(O)c2c(c1)O[C@H](c1ccc(O)c(O)c1)[C@@H](O)[C@@H]2c1c(O)cc(O)c2c1O[C@H](c1ccc(O)c(O)c1)[C@@H](O)C2` [Procyanidin B3 (8), Procyanidin B3], on PRL-3, the IC50 came out at 127 ± 1.5 µM. Moreover, the cytotoxic effects entry in data set [1] (50, 75 and 100 μM, all three cell lines) is on record as “did not show any cytotoxic effects”. The “concentration up to which not cytotoxic” value in data set [1] is “at least 100 μM”.

`Oc1cc(O)c2c(c1)O[C@H](c1ccc(O)c(O)c1)[C@@H](O)[C@@H]2c1c(O)cc(O)c2c1O[C@H](c1ccc(O)c(O)c1)[C@@H](O)[C@@H]2c1c(O)cc(O)c2c1O[C@H](c1ccc(O)c(O)c1)[C@@H](O)C2` [Procyanidin C2 (9), Procyanidin C2]: the concentration for half-maximal inhibition (IC50) at PRL-3 amounted to 18.8 ± 4.5 µM. Also, the “concentration up to which not cytotoxic” value in data set [1] (human) is “up to 50 μM”.
